Experimental data taken from PMC12259270, “Sensory neuron–expressed FGF13 controls nociceptive signaling in diabetic neuropathy models” (The Journal of Clinical Investigation, 2025).
Residues, ends and D or L forms follow the SMILES beside them. *: point of attachment. Cbz = O=C(OCc1ccccc1)*; OtBu = CC(C)(C)O*

Assays:
C57BL/6 mice [1] = assay: Capsaicin-induced thermal hypersensitivity (Hargreaves); type: in vivo, mouse
Description: FGF13 is a neuronal gene ubiquitously transcribed in DRG neuronal subtypes ([43]–[46]). To investigate neuronal subtype enrichment of the FGF13 transcript, we examined a gene panel including FGF13, SCN9A, and several marker genes in mouse single-cell transcriptomic data (Supplemental Figure 10) ([43]–[46]). […] Critically, putative silent nociceptors marked by somatostatin (SST), and the nicotinic cholinergic receptor α-3 subunit (CHRNA3) contribute to development of inflammatory mechanical hyperalgesia ([47]). […] We next determined if PW164 modulation of the FGF13/Nav1.7 complex could suppress nociceptive behaviors in WT mice. We tested whether intraplantar (i.pl.) injection (5 μL) of PW164 altered hind paw withdrawal in response to low or high intensity von Frey filament (LVF or HVF, respectively) mechanical stimulation (Figure 3A). […] Next, we evaluated PW164’s effect on mechanical and thermal hindpaw sensitivity in capsaicin-induced nociceptive hypersensitivity models. […] Next, we performed in vivo target validation in WT mice that received an intrathecal (i.t.) injection in L5 of AAV2-shFGF13 (6 μL, viral titers 1 × 10^12 vector genomes (vg)/mL); a control group received an equal number of AAV2-shCTRL particles (Figure 3C).
(§1) Experiments were performed on 6- to 12-week-old male C57BL/6 mice (The Jackson Laboratory, Bar Harbor, ME) housed in the AAALAC-accredited facility at the University of Texas Medical Branch. Mice were group-housed with up to 5 mice per cage on a 12-to-12-hour light–dark cycle and had access to water and food ad libitum. All protocols were approved by the Institutional Animal Care and Use Committee (IACUC) at the University of Texas Medical Branch and in accordance with the National Institutes of Health (NIH) guidelines.
PW164 and ZL192 were dissolved in DMSO and saline in a ratio of 1:10. 0.1% capsaicin (10% ethanol, 10% Tween-20 in saline; Sigma-Aldrich). All the compounds were injected at the center of the hind paw. The control group received a DMSO-saline mixture. […]
(§2) AAV2 viral particles packaged by the University of North Carolina Gene Therapy Core Facility (viral titer ranging […]
Before intrathecal injections in the lumbar region, mice were maintained in an anesthetizing box with 2% isoflurane to induce unconsciousness. Six microliters of viral vector were gently injected into the CSF through a 30-gauge needle with a Hamilton syringe in the lumbar area between vertebrae L4 and L5 by gently gripping the iliac crest of the mouse and inserting the needle with an angle of 45°. The correct procedure was confirmed by the mouse’s tail reflexiv e flick. […]

C57BL/6 mice [2] = assay: Thermal hypersensitivity induced by intrathecal AAV2-FGF13-GFP (Hargreaves); type: in vivo, mouse
Description: Next, the in vivo PW164 strategy was applied to test ZL192 activity in mice that received i.t. injection (L4-L6) of either AAV2-shCTRL or AAV2-shFGF13 viral particles (10 μL; Figure 6B).
as §1
PW164 and ZL192 were dissolved in DMSO and saline in a ratio of 1:10. 0.1% capsaicin (10% ethanol, 10% Tween-20 in saline; Sigma-Aldrich). All the compounds were injected at the center of the hind paw. The control group received a DMSO-saline mixture. 0.1% capsaicin was injected at the center of the hind paw and then PW164 (0.07 mg/ml) or DMSO was intradermally administered at the site of capsaicin injection Capsaicin was prepared from 1% (wt/vol) capsaicin stock solution dissolved in 100% ethanol, and 0.1% of diluted stock was made using tween-80 and saline solution at a 1:1:8 ratio. Bupivacaine was prepared from a 1:2 dilution with sterile 0.9% saline and locally injected in the center of the paw at 7 mg/ml.
as §2
Before intrathecal injections in the lumbar region, mice were maintained in an anesthetizing box with 2% isoflurane to induce unconsciousness. […]
Mechanical sensitivity was assessed using von Frey filaments (VFF 0.1g and 1.0 g force) in mice that were either naïve or received intraplantar ([…].) injection of capsaicin. […]

For `COC(=O)[C@@H](NC(=O)[C@H](CCC(=O)OC(C)(C)C)NC(=O)[C@H](CC(C)C)NC(=O)[C@@H]1CCCN1C(=O)OCc1ccccc1)C(C)C` [PW164] (Cbz-PLE(OtBu)V-OMe), the “thermal sensitivity in AAV2-shFGF13 mice after capsaicin” value (C57BL/6 mice [1]; PW164 5 μL, 0.7mg/mL hind paw) was “did not further modify”, the capsaicin-induced thermal sensitivity (C57BL/6 mice [1]; PW164 at the capsaicin injection site, 30 minutes post-capsaicin) was “inhibited” and the “duration of rescue in AAV2-FGF13-GFP mice” value (C57BL/6 mice [2]; PW164 5 μL, 0.7 mg/mL) was “up to 2.5 hours”. For the same molecule, the “thermal hypersensitivity in AAV2-FGF13-GFP mice” value (C57BL/6 mice [2]; bupivacaine 7 mg/mL (5 μL), Suppl Fig 15B) was “Complete recovery” and the “thermal hypersensitivity in AAV2-FGF13-GFP mice” value (C57BL/6 mice [2]; day 68, PW164 5 μL, 0.7 mg/mL) was “partial rescue”.
